From article PMC12123411, “Structural insight into the novel Thermus thermophilus SPOUT methyltransferase RlmR catalysing Um2552 formation in the 23S rRNA A-loop: a case of convergent evolution” (Nucleic Acids Research, 2025)

Columns and labels:
[1] = target: T1, RlmR (TTC1712) (Thermus thermophilus, UniProt Q72GY4); experiment: X-ray crystal structure, […] Å; type: binding; conditions: ternary complex with U2552 59-mer A-loop RNA; SAH in bent conformation; SAM site at the trefoil knot; pH 4.5
T1 construct: gene TT_C1712; full-length ORF (about 260 residues), N-terminal His-tag, pET28, codon-optimised gene, expressed in E. coli Rosetta; homodimer; HB8 orthologue TTHA0275 differs by three residues
T1 sequence (Q72GY4 1-260): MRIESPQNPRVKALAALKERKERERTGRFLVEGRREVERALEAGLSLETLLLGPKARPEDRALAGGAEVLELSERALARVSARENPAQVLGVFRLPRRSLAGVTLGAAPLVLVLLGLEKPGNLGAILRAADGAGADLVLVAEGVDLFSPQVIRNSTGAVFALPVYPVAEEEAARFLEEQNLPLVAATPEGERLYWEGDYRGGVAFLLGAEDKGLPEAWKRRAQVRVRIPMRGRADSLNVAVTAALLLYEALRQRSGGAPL

[2] = target: RlmR (TTC1712), 23S rRNA Um2552 SPOUT methyltransferase of Thermus thermophilus HB27 (Thermus thermophilus HB27); experiment: SEC; gel filtration chromatography of purified RlmR (Supplementary Fig. S4)
[3] = target: RlmR (TTC1712), 23S rRNA Um2552 SPOUT methyltransferase of Thermus thermophilus HB27 (Thermus thermophilus HB27); experiment: crystal structure; RlmR apoenzyme crystallised under oil at 20°C (100 mM Na citrate pH 4, 20% PEG6000, 1 M LiCl); asymmetric unit of two dimers; the same dimer holds the 59-mer RNA in the complexes with SAH or SAM
[4] = target: T1, RlmR (TTC1712); experiment: X-ray crystal structure (co-crystal with RNA and SAM); also radiolabelled methyl transfer assay; type: binding; conditions: co-substrate U2552 59-mer RNA; SAM kept in the dimer site without RNA, turned over to SAH in the RNA-bound site; assay pH 8.0, 5 mM MgCl2, 50 °C, labelled compound

## Nc1ncnc2c1ncn2[C@@H]1O[C@H](CSCC[C@H](N)C(=O)O)[C@@H](O)[C@H]1O [SAH, S-adenosyl-homocysteine]
[1]
  X-ray crystal structure, 1.9 Å: crystal structure of RlmR in complex with the 59-mer RNA and SAH to a resolution

## RlmR (TTC1712), 23S rRNA Um2552 SPOUT methyltransferase of Thermus thermophilus HB27 (enzyme)
[2]
  stoichiometry N: 2
[3]
  stoichiometry N: 2

## C[S+](CC[C@H](N)C(=O)O)C[C@H]1O[C@@H](n2cnc3c(N)ncnc32)[C@H](O)[C@@H]1O (stereo partly shown) [SAM, S-adenosylmethionine]
[4]
  X-ray crystal structure (co-crystal with RNA and SAM); also radiolabelled methyl: in the other catalytic site of the dimer, not hosting the substrate, the co-substrate remains present as SAM
